# Experimental data taken from PMC5218480 (PLoS ONE, 2017).
# Test system: MV-4-11 cells
# Assay: Gene expression microarray analysis (Affymetrix PrimeView) and GSEA
# Assay type: cell-based, human
# Design: RFU PODN (11730768_x_at) / Fold change /veh PODN (11730768_x_at) / RFU LINC00158 (11744669_a_at) / Fold change /veh LINC00158 (11744669_a_at) / RFU DUSP10 (11751237_a_at) / Fold change /veh DUSP10 (11751237_a_at) / RFU ID3 (11757404_x_at) / Fold change /veh ID3 (11757404_x_at) / RFU PLEKHG5 (11737974_s_at) / Fold change /veh PLEKHG5 (11737974_s_at) / RFU LRRC4B (11730491_at) / Fold change /veh LRRC4B (11730491_at) / RFU GIMAP4 (11747438_a_at) / Fold change /veh GIMAP4 (11747438_a_at) / RFU KRT8 (11758183_x_at) / Fold change /veh KRT8 (11758183_x_at) / RFU CNN1 (11734310_a_at) / Fold change /veh CNN1 (11734310_a_at) / RFU VPS37D (11726825_at) / Fold change /veh VPS37D (11726825_at) / RFU C10orf10 (11716522_x_at) / Fold change /veh C10orf10 (11716522_x_at) / RFU KIR2DL2 /// KIR2DL4 /// KIR2DL5A /// KIR2DL5B /// KIR2DS1 /// KIR2DS2 /// KIR2DS3 /// KIR2DS4 /// KIR3DL3 /// KIR3DL3 /// KIR3DS1 (11738374_at) / Fold change /veh KIR2DL2 /// KIR2DL4 /// KIR2DL5A /// KIR2DL5B /// KIR2DS1 /// KIR2DS2 /// KIR2DS3 /// KIR2DS4 /// KIR3DL3 /// KIR3DL3 /// KIR3DS1 (11738374_at) / RFU C1QL1 (11718748_at) / Fold change /veh C1QL1 (11718748_at) / RFU TMPRSS4 (11747572_a_at) / Fold change /veh TMPRSS4 (11747572_a_at) / RFU HAMP (11756126_x_at) / Fold change /veh HAMP (11756126_x_at) / RFU RNFT2 (11725882_a_at) / Fold change /veh RNFT2 (11725882_a_at) / RFU NR4A2 (11747474_a_at) / Fold change /veh NR4A2 (11747474_a_at) / RFU ABCC12 (11746883_a_at) / Fold change /veh ABCC12 (11746883_a_at) / RFU TMEM136 (11760407_x_at) / Fold change /veh TMEM136 (11760407_x_at) / RFU CLDN22 /// WWC2 (11732394_at) / Fold change /veh CLDN22 /// WWC2 (11732394_at) / RFU HLA-DPB1 (11760878_x_at) / Fold change /veh HLA-DPB1 (11760878_x_at) / RFU SPINT1 (11716480_a_at) / Fold change /veh SPINT1 (11716480_a_at) / RFU GAP43 (11754022_s_at) / Fold change /veh GAP43 (11754022_s_at) / RFU A4GNT (11735810_at) / Fold change /veh A4GNT (11735810_at) / RFU PRB3 (11715151_x_at) / Fold change /veh PRB3 (11715151_x_at) / RFU TUBB4B (11761932_at) / Fold change /veh TUBB4B (11761932_at) / RFU CAPN14 (11732068_a_at) / Fold change /veh CAPN14 (11732068_a_at) / RFU TMCC2 (11721928_a_at) / Fold change /veh TMCC2 (11721928_a_at) / RFU IRGQ (11745062_a_at) / Fold change /veh IRGQ (11745062_a_at) / RFU FAM174B (11720279_a_at) / Fold change /veh FAM174B (11720279_a_at) / RFU TMPRSS4 (11748680_a_at) / Fold change /veh TMPRSS4 (11748680_a_at) / RFU FAM212B (11763350_a_at) / Fold change /veh FAM212B (11763350_a_at) / RFU PLEKHG5 (11743358_a_at) / Fold change /veh PLEKHG5 (11743358_a_at) / RFU ZSCAN30 (11745921_a_at) / Fold change /veh ZSCAN30 (11745921_a_at) / RFU CMKLR1 (11741424_a_at) / Fold change /veh CMKLR1 (11741424_a_at) / RFU LOC101060620 /// MAPK8IP1 (11723275_at) / Fold change /veh LOC101060620 /// MAPK8IP1 (11723275_at) / RFU SPTSSB (11747773_x_at) / Fold change /veh SPTSSB (11747773_x_at) / RFU PRSS12 (11739890_at) / Fold change /veh PRSS12 (11739890_at) / RFU BIN1 (11741810_x_at) / Fold change /veh BIN1 (11741810_x_at) / RFU WNT11 (11732464_a_at) / Fold change /veh WNT11 (11732464_a_at) / RFU C10orf10 (11716521_a_at) / Fold change /veh C10orf10 (11716521_a_at) / RFU C5orf56 (11738089_at) / Fold change /veh C5orf56 (11738089_at) / RFU CYB561 (11721691_x_at) / Fold change /veh CYB561 (11721691_x_at) / RFU ANKRD19P (11752326_a_at) / Fold change /veh ANKRD19P (11752326_a_at) / RFU OR2T12 /// OR2T33 /// OR2T8 (11738714_s_at) / Fold change /veh OR2T12 /// OR2T33 /// OR2T8 (11738714_s_at) / RFU VCAN (11748164_a_at) / Fold change /veh VCAN (11748164_a_at) / RFU JSRP1 (11732532_at) / Fold change /veh JSRP1 (11732532_at) / RFU KRTAP10-11 (11738290_x_at) / Fold change /veh KRTAP10-11 (11738290_x_at) / RFU MYO3A (11730013_a_at) / Fold change /veh MYO3A (11730013_a_at) / RFU EBF3 (11725865_a_at) / Fold change /veh EBF3 (11725865_a_at) / RFU CAMK2N1 (11719241_x_at) / Fold change /veh CAMK2N1 (11719241_x_at) / RFU C5orf56 (11738088_a_at) / Fold change /veh C5orf56 (11738088_a_at) / RFU OLFML3 (11715873_a_at) / Fold change /veh OLFML3 (11715873_a_at) / RFU LOC100653217 /// NTM (11731650_a_at) / Fold change /veh LOC100653217 /// NTM (11731650_a_at) / RFU MAPK11 (11762145_a_at) / Fold change /veh MAPK11 (11762145_a_at) / RFU FIZ1 (11724087_x_at) / Fold change /veh FIZ1 (11724087_x_at) / RFU OASL (11726364_x_at) / Fold change /veh OASL (11726364_x_at) / RFU SOX15 (11748057_x_at) / Fold change /veh SOX15 (11748057_x_at) / RFU CD79A (11719716_a_at) / Fold change /veh CD79A (11719716_a_at) / RFU HIST1H1D (11736915_at) / Fold change /veh HIST1H1D (11736915_at) / RFU CASKIN2 (11723855_a_at) / Fold change /veh CASKIN2 (11723855_a_at) / RFU LOC730098 (11760151_x_at) / Fold change /veh LOC730098 (11760151_x_at) / RFU OR4N2 (11742367_at) / Fold change /veh OR4N2 (11742367_at) / RFU PRRT2 (11749266_a_at) / Fold change /veh PRRT2 (11749266_a_at) / RFU SNX32 (11753110_a_at) / Fold change /veh SNX32 (11753110_a_at) / RFU CDHR5 (11726645_a_at) / Fold change /veh CDHR5 (11726645_a_at) / RFU RCAN1 (11760418_a_at) / Fold change /veh RCAN1 (11760418_a_at) / RFU FAM167A (11723789_a_at) / Fold change /veh FAM167A (11723789_a_at) / RFU FAM26E (11764081_at) / Fold change /veh FAM26E (11764081_at) / RFU ISYNA1 (11749810_s_at) / Fold change /veh ISYNA1 (11749810_s_at) / RFU ACY1 (11761880_at) / Fold change /veh ACY1 (11761880_at) / RFU 11764098_at / Fold change /veh 11764098_at / RFU SAMD14 (11745864_x_at) / Fold change /veh SAMD14 (11745864_x_at) / RFU NPB (11741838_a_at) / Fold change /veh NPB (11741838_a_at) / RFU TMPRSS6 (11731388_a_at) / Fold change /veh TMPRSS6 (11731388_a_at) / RFU KRTAP10-2 (11738614_at) / Fold change /veh KRTAP10-2 (11738614_at) / RFU ARHGAP8 /// PRR5-ARHGAP8 (11727945_x_at) / Fold change /veh ARHGAP8 /// PRR5-ARHGAP8 (11727945_x_at) / RFU KRTAP5-7 /// NADSYN1 (11734609_at) / Fold change /veh KRTAP5-7 /// NADSYN1 (11734609_at) / RFU RASL12 (11751679_a_at) / Fold change /veh RASL12 (11751679_a_at) / RFU CDKN2B (11736163_a_at) / Fold change /veh CDKN2B (11736163_a_at) / RFU PRF1 (11729649_at) / Fold change /veh PRF1 (11729649_at) / RFU, ZNF638 /// ZNF638-IT1 / Fold change vs veh, ZNF638 /// ZNF638-IT1 / RFU, PANK3 / Fold change vs veh, PANK3 / RFU, SH3YL1 / Fold change vs veh, SH3YL1 / RFU, ZEB2 / Fold change vs veh, ZEB2 / RFU, NRIP1 / Fold change vs veh, NRIP1 / RFU, PTTG1IP / Fold change vs veh, PTTG1IP / RFU, CAPN2 / Fold change vs veh, CAPN2 / RFU, MED14 / Fold change vs veh, MED14 / RFU, SNORA58 / Fold change vs veh, SNORA58 / RFU, C1orf63 / Fold change vs veh, C1orf63 / RFU, LRRFIP1 / Fold change vs veh, LRRFIP1 / RFU, NDUFAF7 / Fold change vs veh, NDUFAF7 / RFU, SLC12A2 / Fold change vs veh, SLC12A2 / RFU, IBTK / Fold change vs veh, IBTK / RFU, ESF1 / Fold change vs veh, ESF1 / Fold change vs veh, TMEM50B / RFU, TAOK1 / Fold change vs veh, TAOK1 / RFU, ACBD3 / Fold change vs veh, ACBD3 / RFU, TMA16 / Fold change vs veh, TMA16 / RFU, RWDD3 / Fold change vs veh, RWDD3 / RFU, BCAT1 / Fold change vs veh, BCAT1 / RFU, EDEM3 / Fold change vs veh, EDEM3 / RFU, TMEM33 / Fold change vs veh, TMEM33 / RFU, WDR75 / Fold change vs veh, WDR75 / RFU, AHCTF1 / Fold change vs veh, AHCTF1 / RFU, TFRC / Fold change vs veh, TFRC / RFU, ZDHHC17 / Fold change vs veh, ZDHHC17 / RFU, NOM1 / Fold change vs veh, NOM1 / RFU, ARL8B / Fold change vs veh, ARL8B / RFU, ZBTB11 / Fold change vs veh, ZBTB11 / RFU, TAMM41 / Fold change vs veh, TAMM41 / RFU, KIAA1704 /// LOC100996395 / Fold change vs veh, KIAA1704 /// LOC100996395 / RFU, ING1 / Fold change vs veh, ING1 / RFU, TRMT61B / Fold change vs veh, TRMT61B / RFU, FUBP3 / Fold change vs veh, FUBP3 / RFU, TP53 / Fold change vs veh, TP53 / RFU, TNKS2 / Fold change vs veh, TNKS2 / RFU, ZFP14 / Fold change vs veh, ZFP14 / RFU, ACTR2 / Fold change vs veh, ACTR2 / RFU, PPP3R1 / Fold change vs veh, PPP3R1 / RFU, PIK3R1 / Fold change vs veh, PIK3R1 / RFU, HNRNPA1 / Fold change vs veh, HNRNPA1 / RFU, RNF170 / Fold change vs veh, RNF170 / RFU, ZNF28 / Fold change vs veh, ZNF28 / RFU, RNGTT / Fold change vs veh, RNGTT / RFU, OGT / Fold change vs veh, OGT / RFU, BRD1 / Fold change vs veh, BRD1 / RFU, MARS / Fold change vs veh, MARS / RFU, ZNF655 / Fold change vs veh, ZNF655 / RFU, FAHD1 / Fold change vs veh, FAHD1 / RFU, BDP1 / Fold change vs veh, BDP1 / RFU, LRRCC1 / Fold change vs veh, LRRCC1 / RFU, ARID1A / Fold change vs veh, ARID1A / RFU, ZNF146 / Fold change vs veh, ZNF146 / RFU, ZNF330 / Fold change vs veh, ZNF330 / RFU, GPN3 / Fold change vs veh, GPN3 / RFU, C9orf123 / Fold change vs veh, C9orf123 / RFU, N4BP2L2 / Fold change vs veh, N4BP2L2 / RFU, ARFIP1 / Fold change vs veh, ARFIP1 / RFU, FAM179B / Fold change vs veh, FAM179B / RFU, BCL10 / Fold change vs veh, BCL10 / RFU, UHRF1BP1L / Fold change vs veh, UHRF1BP1L / RFU, BET1 / Fold change vs veh, BET1 / RFU, CNOT2 / Fold change vs veh, CNOT2 / RFU, ZNF268 / Fold change vs veh, ZNF268 / Fold change vs veh, ZNF507 / RFU, DGCR2 / Fold change vs veh, DGCR2 / RFU, WDSUB1 / Fold change vs veh, WDSUB1 / Fold change vs veh, HSP90B1 /// MIR3652 / RFU, ADSS / Fold change vs veh, ADSS / RFU, GK / Fold change vs veh, GK / RFU, ZNF148 / Fold change vs veh, ZNF148 / RFU, TAF9 / Fold change vs veh, TAF9 / RFU, SLC1A5 / Fold change vs veh, SLC1A5 / RFU, SLMO2 / Fold change vs veh, SLMO2 / RFU, ABCC4 / Fold change vs veh, ABCC4 / RFU, LOC101060439 /// RAP1B / Fold change vs veh, LOC101060439 /// RAP1B / RFU, RFX7 / Fold change vs veh, RFX7 / RFU, GTPBP10 / Fold change vs veh, GTPBP10 / RFU, CNEP1R1 / Fold change vs veh, CNEP1R1 / RFU, BIVM-ERCC5 /// ERCC5 / Fold change vs veh, BIVM-ERCC5 /// ERCC5 / RFU, ILF3 / Fold change vs veh, ILF3 / RFU 11762660_at / Fold change /veh 11762660_at / RFU VCAN (11757783_s_at) / Fold change /veh VCAN (11757783_s_at) / RFU DDX43 (11728927_at) / Fold change /veh DDX43 (11728927_at) / RFU KRT8 (11758188_x_at) / Fold change /veh KRT8 (11758188_x_at) / RFU NKD1 (11759106_at) / Fold change /veh NKD1 (11759106_at) / RFU SRD5A1 (11742802_a_at) / Fold change /veh SRD5A1 (11742802_a_at) / RFU TPSAB1 /// TPSB2 (11721975_s_at) / Fold change /veh TPSAB1 /// TPSB2 (11721975_s_at) / RFU GSTM3 (11746129_a_at) / Fold change /veh GSTM3 (11746129_a_at) / RFU IL23R (11737362_x_at) / Fold change /veh IL23R (11737362_x_at) / RFU TMEM51 (11727254_a_at) / Fold change /veh TMEM51 (11727254_a_at) / RFU PIWIL2 (11732686_x_at) / Fold change /veh PIWIL2 (11732686_x_at) / RFU ORM1 (11744905_x_at) / Fold change /veh ORM1 (11744905_x_at) / RFU CCDC152 (11743942_at) / Fold change /veh CCDC152 (11743942_at) / RFU ECM1 (11717891_a_at) / Fold change /veh ECM1 (11717891_a_at) / RFU IL23R (11748794_a_at) / Fold change /veh IL23R (11748794_a_at) / RFU TNFAIP8L3 (11732012_x_at) / Fold change /veh TNFAIP8L3 (11732012_x_at) / RFU MBOAT4 (11741988_at) / Fold change /veh MBOAT4 (11741988_at) / RFU 11764193_at / Fold change /veh 11764193_at / RFU TMEM53 (11763286_at) / Fold change /veh TMEM53 (11763286_at) / RFU MAGEB2 (11727129_at) / Fold change /veh MAGEB2 (11727129_at) / RFU TMEM200A (11744735_a_at) / Fold change /veh TMEM200A (11744735_a_at) / RFU CCDC152 (11751479_a_at) / Fold change /veh CCDC152 (11751479_a_at) / RFU FAM211A (11726209_a_at) / Fold change /veh FAM211A (11726209_a_at) / RFU RGS16 (11746705_a_at) / Fold change /veh RGS16 (11746705_a_at) / RFU VCAN (11755009_s_at) / Fold change /veh VCAN (11755009_s_at) / RFU RHOB (11743442_s_at) / Fold change /veh RHOB (11743442_s_at) / RFU RGS16 (11720943_a_at) / Fold change /veh RGS16 (11720943_a_at) / RFU RGS16 (11720944_at) / Fold change /veh RGS16 (11720944_at) / RFU, VPS4B / Fold change vs veh, VPS4B / RFU, CREB1 / Fold change vs veh, CREB1 / RFU, DNAJC13 / Fold change vs veh, DNAJC13 / RFU, GNAQ / Fold change vs veh, GNAQ / RFU, CDK5R1 / Fold change vs veh, CDK5R1 / RFU, ZRANB3 / Fold change vs veh, ZRANB3 / RFU, CUL4A / Fold change vs veh, CUL4A / RFU, CCNY / Fold change vs veh, CCNY / RFU, UFL1 / Fold change vs veh, UFL1 / RFU, COG3 / Fold change vs veh, COG3 / RFU, DIAPH2 / Fold change vs veh, DIAPH2 / RFU, SKA2 / Fold change vs veh, SKA2 / RFU, AFF3 / Fold change vs veh, AFF3 / RFU, LMF1 / Fold change vs veh, LMF1 / RFU, IPO11 / Fold change vs veh, IPO11 / RFU, DFFB / Fold change vs veh, DFFB / RFU, FOXP1 / Fold change vs veh, FOXP1 / RFU, CARD8 / Fold change vs veh, CARD8 / RFU, STRN3 / Fold change vs veh, STRN3 / RFU, ADK / Fold change vs veh, ADK / RFU, RASSF2 / Fold change vs veh, RASSF2 / RFU, WIPF1 / Fold change vs veh, WIPF1 / RFU, LARP1B / Fold change vs veh, LARP1B / RFU, RASA1 / Fold change vs veh, RASA1 / RFU, RB1 / Fold change vs veh, RB1 / RFU, PPFIA1 / Fold change vs veh, PPFIA1 / RFU, MAT2A / Fold change vs veh, MAT2A / RFU, CCT5 / Fold change vs veh, CCT5 / RFU, WDR92 / Fold change vs veh, WDR92 / RFU, CUX1 / Fold change vs veh, CUX1 / RFU, TTC7A / Fold change vs veh, TTC7A / RFU, TMEM135 / Fold change vs veh, TMEM135 / RFU, DEPTOR / Fold change vs veh, DEPTOR / RFU, CPM / Fold change vs veh, CPM / RFU, DNAJB6 / Fold change vs veh, DNAJB6 / RFU, CACNA2D3 / Fold change vs veh, CACNA2D3 / RFU, DTX4 / Fold change vs veh, DTX4 / RFU, TFCP2 / Fold change vs veh, TFCP2 / RFU, GMCL1 /// GMCL1P1 / Fold change vs veh, GMCL1 /// GMCL1P1 / RFU, AEBP2 / Fold change vs veh, AEBP2 / RFU, SNHG1 /// SNORD22 /// SNORD25 /// SNORD26 /// SNORD27 /// SNORD28 /// SNORD29 /// SNORD31 / Fold change vs veh, SNHG1 /// SNORD22 /// SNORD25 /// SNORD26 /// SNORD27 /// SNORD28 /// SNORD29 /// SNORD31 / Fold change (Aza/veh), C12orf56 (ProbeSet 11735607_a_at) / Fold change (ACY-1035/veh), C12orf56 (ProbeSet 11735607_a_at) / Fold change (Aza/veh), FGFR1OP (ProbeSet 11751329_s_at) / Fold change (ACY-1035/veh), FGFR1OP (ProbeSet 11751329_s_at) / Fold change (Aza/veh), VPS36 (ProbeSet 11739960_a_at) / Fold change (ACY-1035/veh), VPS36 (ProbeSet 11739960_a_at) / RFU SYPL1 (11715823_x_at) / Fold change /veh SYPL1 (11715823_x_at) / RFU IGFBP7 (11715501_s_at) / Fold change /veh IGFBP7 (11715501_s_at) / RFU REEP3 (11722064_at) / Fold change /veh REEP3 (11722064_at) / RFU IGLL1 (11728026_x_at) / Fold change /veh IGLL1 (11728026_x_at): dose or concentration left out as unconfirmed
# Details: ProbeSet 11717914_a_at; LIST B
smiles,measurement,value
Nc1ncn([C@@H]2O[C@H](CO)[C@@H](O)[C@H]2O)c(=O)n1 [azacitidine],"Fold change vs veh, BIVM-ERCC5 /// ERCC5",0.92
